# Reference: patent US12455218B2, “Methods and compositions for reversing platelet clumping” (Truvian Sciences, Inc., priority 2019, dated 2025)
# Entries after “also recorded” stand apart in the source; their conditions may differ.
# Key:
# Assay type in all cases: cell-based
# white blood cells = assay: White blood cell morphology, AO stain, fluorescence microscopy; conditions: FIG. 2, fingerstick LiHep blood, 60 M EDTA, 3×EDTA sample 60 mM
# Experimental: Next, it was examined whether EDTA exposure impacts blood cell morphology. Particularly, fresh fingerstick blood samples were collected into EDTA and LiHep blood collection tubes. Concentrated EDTA was dried for at least one hour at room temperature in microcentrifuge tubes using a vacuum drying oven. A 200 uL fraction of the LiHep sample (“1×”) was added to the previously prepared vacuum-dried EDTA resulting in a final concentration of 20 mM EDTA in blood. Another 200 uL fraction of the LiHep sample (“3×”) was added to the previously prepared vacuum-dried EDTA resulting in a final concentration of 60 mM EDTA in blood. […] Cells were imaged using the fluorescence setting on an Echo Revolve microscope. […] To capture the green fluorescence of AO, which labeled the nuclei of white blood cells, a blue LED light source with excitation filter at 470/40 nm was paired with emission filter at 525/50 nm, with a dichroic mirror at 495 nm. To capture the red fluorescence of AO, which labeled the cytoplasmic compartments of white blood cells, the same blue LED light source was paired with emission filter at 635/60 nm with a dichroic mirror at 600 nm. […]
# Particularly, fresh venipuncture blood samples were collected into EDTA and LiHep blood collection tubes as described above. […] Cells were imaged using the fluorescence setting on an Echo Revolve™ microscope. […]
# [1] = system: platelets in venipuncture and fingerstick blood; assay: Platelet clumping after blood collection into anticoagulant tubes; conditions: venipuncture and fingerstick blood collected in anticoagulant tubes
# Source text: Blood used in the following examples came from either venipuncture or fingerstick samples. Standard phlebotomy practices were followed to collect donor venipuncture blood in either BD Vacutainer′ EDTA blood collection tubes or BD Vacutainer′ PST lithium heparin plasma separation blood collection tubes. Standard phlebotomy practices were followed to collect donor fingerstick blood in either LiHep SAFE-T-FILL™ tubes or EDTA SAFE-T-FIL™tubes. All blood samples were stored at room temperature until use. Samples were analyzed within 12 hours of blood collection.
# Platelet clumping appeared to occur spontaneously following blood collection. For all studies, an EDTA control sample was used in which blood from either venipuncture or fingerstick were collected into EDTA tubes. EDTA venipuncture control samples were collected into EDTA blood collection tubes from the same donor using the same port as the lithium heparin samples.
# [2] = system: platelet clumps in LiHep blood samples; assay: Platelet count per field of view in blood smears of LiHep blood, Azure B stain; conditions: for recovery of platelet counts: FIG. 3, fingerstick LiHep blood, vortexed, Azure B
# Experimental: A series of anti-coagulants are tested for their respective effect in reversing platelet clumping formed in blood samples. Fresh fingerstick blood samples were collected into EDTA and LiHep blood collection tubes as described above. Concentrated EDTA was dried for at least one hour at room temperature in microcentrifuge tubes using a vacuum drying oven. Immediately following collection, a 200 uL fraction of the LiHep sample (“LiHep+EDTA”) was passed through two separate EDTA SAFE-T-FIL™ capillary tubes for a double exposure to the EDTA anticoagulant resulting in a final concentration of about 8.8 mM EDTA in blood Another 200 uL fraction (“LiHep+TruEDTA”) was added to the previously prepared vacuum-dried EDTA resulting in a final concentration of 20 mM EDTA in blood. At 30 minutes post collection, another 200 uL fraction of the LiHep sample (“LiHep+EDTA 30 min”) was passed through two separate EDTA SAFE-T-FILL™ capillary tubes for a double exposure to the EDTA anticoagulant. All samples were pulse vortexed with three, five-second bursts at the maximum vortex setting immediately following addition to EDTA. At 30 minutes post collection, all samples were then stained using an Azure B solution from the Differential Quik Stain™ Kit (Modified Giemsa) from Polysciences, Inc. Azure B was added to blood sample at a 1:1 ratio and pipette mixed. A standard blood smear was performed on all samples. Cells were imaged using the bright field setting on an Echo Revolve™ microscope at 20× magnification. Between six to seven different fields of view were captured. Images were analyzed using Image J and the number of platelets present in each field of view was manually counted. Error bars indicate standard deviation of the data set.
# Particularly, fresh fingerstick blood samples were collected into EDTA and LiHep blood collection tubes as described above. Concentrated EDTA was dried for at least one hour at room temperature in microcentrifuge tubes using a vacuum drying oven. […] Images were analyzed using Image J and the number of platelets present in each field of view was manually counted. […]
# [3] = system: platelet clumps in LiHep blood samples; assay: Platelet count per field of view in blood smears of LiHep blood, acridine orange (AO) stain; conditions: for declumping activity / increase in platelet count due to reversal of platelet clumping: Example 8, FIG. 7 and 8, LiHep blood
# Experimental: Particularly, fresh venipuncture blood samples were collected into EDTA and LiHep blood collection tubes as described above. Concentrated EDTA was dried for at least one hour at room temperature in microcentrifuge tubes using a vacuum drying oven. […] This sample was pulse vortexed with three, ten second bursts at the maximum vortex setting. […] This sample was sonicated in a water bath sonicator for 1 minute. […] This sample was pipette mixed using a Tecan Carvo Omni™ automated pipettor. To mix, 150 uL of sample was aspirated and dispensed at 1 mL/s 0.5 mm from the bottom of the tube. This mixing cycle was repeated 30 times. All samples were then stained using an acridine orange (AO). AO was added to blood sample at a final concentration of 10 ug/mL, pipette mixed and incubated for 5 minutes at room temperature. A standard blood smear was performed on all samples. A coverslip was placed on top of the sample immediately following the blood smear to prevent sample drying out. Cells were imaged using the fluorescence setting on an Echo Revolve™ microscope. AO is a pH-sensitive cationic dye. When bound to double-stranded DNA (for example, in the nuclear compartment), the dye fluoresces green with an excitation maximum at 502 nm and emission maximum at 525 nm. When bound to single stranded DNA and RNA (for example, in the cytoplasm) or when the dye is in an acidic environment (for example, in lysosomes), the dye fluoresces red with an excitation maximum at 460 nm and emission maximum at 650 nm. […] Between five to eight different fields of view were captured. Images were analyzed using Image J and the number of platelets present in each field of view was manually counted. Error bars indicate standard deviation of the data set.
# Particularly, fresh venipuncture blood samples were collected into EDTA and LiHep blood collection tubes as described above. Concentrated EDTA was dried for at least one hour at room temperature in microcentrifuge tubes using a vacuum drying oven. […] Both samples were pulse vortexed with three, ten-second bursts at the maximum vortex setting. Samples were then stained using acridine orange (AO). AO was added to blood sample at a final concentration of 10 ug/mL, pipette mixed and incubated for 5 minutes at room temperature. A standard blood smear was performed on all samples. A coverslip was placed on top of the sample immediately following the blood smear to prevent sample drying out. Cells were imaged using the fluorescence setting on an Echo Revolve™ microscope. AO is a pH-sensitive cationic dye. When bound to double-stranded DNA (for example, in the nuclear compartment), the dye fluoresces green with an excitation maximum at 502 nm and emission maximum at 525 nm. When bound to single stranded DNA and RNA (for example, in the cytoplasm) or when the dye is in an acidic environment (for example, in lysosomes), the dye fluoresces red with an excitation maximum at 460 nm and emission maximum at 650 nm. […] Between five to seven different fields of view were captured. Images were analyzed using Image J and the number of platelets present in each field of view was manually counted. Error bars indicate standard deviation of the data set.
# To investigate the ability of citric acid to reverse platelet clumping, venipuncture blood samples were collected into EDTA and LiHep blood collection tubes as described above. […] A second 15 μL fraction of LiHep blood was treated with citric acid at a final concentration of 5 mM. To encourage platelet declump, samples were then vortexed. Samples were stained using acridine orange and imaged using an Echo Revolve™ Microscope at 20× magnification. Images were analyzed using Image J and the number of platelets present in each field of view (FOV) across 10 FOVs was manually counted.
# Venipuncture blood samples were collected into EDTA and LiHep blood collection tubes as described above. A 15 μL aliquot of LiHep blood was treated with 5 mM NTA an vortexed vigorously.
compound,measurement,setting,value
"O=C(O)CN(CCN(CC(=O)O)CC(=O)O)CC(=O)O [EDTA, ethylenediaminetetraacetic acid]",morphology of white blood cells,white blood cells,negatively impact
same,platelet clumping following blood collection,[1],no detectible platelet clumping
same,recovery of platelet counts,[2]; 17.6 mM EDTA (LiHep+EDTA),greater than 40%
same,recovery of platelet counts,[2]; 20 mM EDTA (LiHep+TruEDTA),greater than 40%
same,reversed platelet clumping as compared to control groups,"[2]; FIG. 3 legend, blood collected in LiHep tubes",about 40%
"O=C(O)CN(CC(=O)O)CC(=O)O [NTA, N,N-bis(carboxymethyl)glycine]",declumping activity / increase in platelet count due to reversal of platelet clumping,[3],showed declumping activity; also recorded: increase in platelet count
same,recovery of platelets,"[3]; FIG. 8, venipuncture LiHep blood, 5 mM NTA, vortexed vigorously, 10 FOVs",71%
"O=C(O)CC(O)(CC(=O)O)C(=O)O [citric acid, 2-hydroxypropane-1,2,3-tricarboxylic acid]",declumping activity / increase in platelet count due to reversal of platelet clumping,[3],increase in platelet count
same,declumping activity / increase in platelet count due to reversal of platelet clumping,[3]; listed as Citric acid,showed declumping activity
same,recovery of platelet counts,"[3]; FIG. 7, venipuncture LiHep blood, citric acid 5 mM, vortexed, 10 FOVs",66%
Lithium heparin,platelet clumping following blood collection,[1],Significant amount of platelet clumping
